This is an account of results in ChEMBL document CHEMBL1201862, “PubChem BioAssay data set” (2004).

Some test systems named below: 786-0; A549; CCRF-CEM; HL-60; IGROV-1; KM12; MDA-MB-231; NCI-H226; NCI-H460; RPMI-8226; SF-268; SF-539; SK-MEL-5; SNB-19; SW-620; T47D; TK-10; CAKI-1; MCF7; SR.
Holding throughout (experiment): NCI tumour cell line growth inhibition, 48 h

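The compound was tested at five concentrations on cells cultured in 96-well plates, with a 48-hour exposure period. GI50 is the concentration that inhibits growth by half.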 Active and inactive are the calls of the source. Cut-off read from the data, not from the text of the source: active = GI50 up to about 1.1 µM and inactive = higher.

Turning to `CN(C)CCNC1=C(Cl)C(=O)c2c(O)ccc(O)c2C1=O`, the GI50 is 2.08 µM (inactive) with 786-0; 2.58 µM (inactive) in the assay on A549; 2.01 µM (inactive) in the assay with CCRF-CEM; 2.38 µM (inactive) in the assay on HL-60; 1.6 µM (inactive) in the assay on IGROV-1; 1.82 µM (inactive) in the assay on KM12. Moreover, the GI50 is 1.38 µM (inactive) in the assay on MDA-MB-231; 23.6 µM (inactive) in the assay on NCI-H226; 1.95 µM (inactive) in the assay with NCI-H460; 2.65 µM (inactive) in the assay with RPMI-8226; 17.1 µM (inactive) with SF-268; 1.73 µM (inactive) in the assay with SF-539. The GI50 in the assay with SK-MEL-5 is 1.54 µM (inactive); in the assay on SNB-19, 1.95 µM (inactive); in the assay on SW-620, 2.02 µM (inactive); with T47D, 2.08 µM (inactive); in the assay on TK-10, 2.33 µM (inactive).

Regarding `O=C1C(Cl)=C(NCCN2CCOCC2)C(=O)c2c(O)ccc(O)c21`, the GI50 with 786-0 is 2.01 µM (inactive); with A549, 2.12 µM (inactive); with CAKI-1, 1.74 µM (inactive); in the assay on CCRF-CEM it was 1.56 µM (inactive); with IGROV-1, 1.88 µM (inactive); in the assay on KM12 it was 3.23 µM (inactive). The GI50 was 1.42 µM (inactive) with MCF7; 2.39 µM (inactive) with MDA-MB-231; 9.95 µM (inactive) in the assay with NCI-H226; 1.58 µM (inactive) in the assay on NCI-H460; 2.28 µM (inactive) with SF-268; 1.75 µM (inactive) in the assay on SF-539. Also, the GI50 is 1.09 µM (active) in the assay on SK-MEL-5; 1.81 µM (inactive) with SNB-19; 1.33 µM (inactive) with SW-620; 1.99 µM (inactive) with T47D; 8.85 µM (inactive) in the assay with TK-10.

With `[N-]=[N+]=CC(=O)OC(CCl)CCl`, the GI50 in the assay on 786-0 is > 100 µM (inactive); in the assay with CCRF-CEM it was > 10 µM (inactive); with HL-60 it was > 100 µM (inactive); with IGROV-1, > 100 µM (inactive); in the assay on KM12, > 100 µM (inactive); in the assay on MCF7, > 100 µM (inactive). For the same compound, the GI50 with MDA-MB-231 is > 100 µM (inactive); in the assay on NCI-H226, > 100 µM (inactive); in the assay with NCI-H460 it was 25.2 µM (inactive); in the assay with RPMI-8226 it was > 100 µM (inactive); in the assay with SF-268 it was > 100 µM (inactive); with SK-MEL-5 it was 46.3 µM (inactive). Further, the GI50 in the assay with SNB-19 is > 100 µM (inactive); in the assay with SR, 37.5 µM (inactive); with SW-620 it was > 100 µM (inactive); in the assay with TK-10, > 100 µM (inactive).

Regarding `CC(C)CN1CN(c2ccccc2)C2(CCN(CC(C)(c3ccc(F)cc3)C3OCCO3)CC2)C1=O` (centres undefined), the GI50 with 786-0 is 3.12 µM (inactive); in the assay on A549 it was 5.09 µM (inactive); in the assay on CAKI-1 it was 12.1 µM (inactive); with CCRF-CEM, 3.55 µM (inactive); in the assay on HL-60 it was 2.68 µM (inactive); with KM12, 3.72 µM (inactive). Besides, the GI50 is 4.11 µM (inactive) in the assay on MCF7; 11.1 µM (inactive) in the assay on NCI-H226; 1.94 µM (inactive) with RPMI-8226; 8.39 µM (inactive) in the assay on SF-268; 5.18 µM (inactive) with SF-539; 2.02 µM (inactive) in the assay on SK-MEL-5. The GI50 with SNB-19 was 7.21 µM (inactive); in the assay with SR, 2.77 µM (inactive); with SW-620, 3.17 µM (inactive); with T47D it was 2.75 µM (inactive); with TK-10, 10.8 µM (inactive).

For `C=C(Cl)C(C)(Cl)CCC(Cl)C(C)C` (centres undefined), the GI50 was > 100 µM (inactive) with 786-0; > 100 µM (inactive) with A549; > 100 µM (inactive) with CAKI-1; 38.7 µM (inactive) in the assay with CCRF-CEM; 44.3 µM (inactive) with HL-60; > 100 µM (inactive) in the assay with IGROV-1. For the same compound, the GI50 was > 100 µM (inactive) in the assay with KM12; > 100 µM (inactive) with MCF7; > 100 µM (inactive) in the assay with MDA-MB-231; > 100 µM (inactive) in the assay with NCI-H226; > 100 µM (inactive) with NCI-H460; 48.6 µM (inactive) in the assay on RPMI-8226. Also, the GI50 with SF-268 was > 100 µM (inactive); in the assay on SF-539 it was > 100 µM (inactive); in the assay on SK-MEL-5, > 100 µM (inactive); in the assay with SNB-19, > 100 µM (inactive); with SR it was 24.8 µM (inactive); in the assay on SW-620, 99.5 µM (inactive). Also, the GI50 in the assay with TK-10 is > 100 µM (inactive).

With `c1ccc(NN=C(c2ccccn2)c2ccccn2)nc1`, the GI50 with 786-0 is 0.142 µM (active); in the assay on A549, 0.384 µM (active); in the assay on CAKI-1, 0.0757 µM (active); in the assay with CCRF-CEM, 0.0224 µM (active); in the assay with IGROV-1, 0.0153 µM (active); in the assay with KM12 it was 0.552 µM (active). For the same compound, the GI50 in the assay with MCF7 was < 0.0245 µM (active); in the assay on MDA-MB-231 it was 0.389 µM (active); in the assay with NCI-H226, 0.285 µM (active); in the assay with NCI-H460, 0.153 µM (active); in the assay on RPMI-8226, 0.211 µM (active); in the assay on SF-268, 0.388 µM (active). In addition, the GI50 in the assay with SF-539 was 1.71 µM (inactive); with SK-MEL-5, 0.0893 µM (active); in the assay with SNB-19 it was 0.598 µM (active); in the assay with SW-620 it was 0.141 µM (active); in the assay on TK-10 it was 0.357 µM (active).

Consider `O=S(=O)(O)c1c(/N=N/c2c(O)ccc3ccccc23)ccc2ccccc12`, for which the GI50 in the assay with 786-0 is > 100 µM (inactive); in the assay with A549 it was > 100 µM (inactive); in the assay on CAKI-1 it was > 100 µM (inactive); with CCRF-CEM, 48.4 µM (inactive); in the assay on IGROV-1, 79.8 µM (inactive); in the assay on KM12, > 100 µM (inactive). Moreover, the GI50 in the assay with MDA-MB-231 is > 100 µM (inactive); in the assay with NCI-H226 it was 19.4 µM (inactive); with RPMI-8226, > 100 µM (inactive); in the assay on SF-268 it was 51.4 µM (inactive); in the assay with SK-MEL-5, > 100 µM (inactive); in the assay on SNB-19, > 100 µM (inactive). Besides, the GI50 with SR, in the assay on SW-620, with T47D and with TK-10 was > 100 µM (inactive) each time.

`O=c1[nH]c(=O)n(C2OC(CO)C(O)C2O)cc1OCc1ccccc1` (centres undefined): the GI50 in the assay on 786-0 was > 100 µM (inactive); with A549 it was > 87.3 µM (inactive); in the assay on CAKI-1, > 100 µM (inactive); in the assay on CCRF-CEM it was > 60.5 µM (inactive); in the assay on HL-60, > 52.8 µM (inactive); in the assay on IGROV-1, > 100 µM (inactive). Besides, the GI50 was > 100 µM (inactive) in the assay with KM12; > 100 µM (inactive) in the assay on NCI-H226; > 66.7 µM (inactive) in the assay on NCI-H460; > 57.9 µM (inactive) in the assay on RPMI-8226; > 100 µM (inactive) in the assay on SF-268; > 100 µM (inactive) in the assay with SF-539. For the same compound, the GI50 in the assay on SK-MEL-5 is > 100 µM (inactive); with SNB-19, > 100 µM (inactive); in the assay with SR, > 50.1 µM (inactive); in the assay on SW-620, > 57 µM (inactive); in the assay with TK-10, > 100 µM (inactive).

Take `N#CC(/C(=N/NC(=N)N)C(=O)Nc1ccccc1[N+](=O)[O-])c1nc(-c2ccc([N+](=O)[O-])cc2)cs1` (centres undefined): the GI50 in the assay with 786-0, in the assay with A549, with CAKI-1, in the assay with CCRF-CEM, in the assay on HL-60 and with IGROV-1 was > 100 µM (inactive) in each case. In addition, the GI50 in the assay with KM12, in the assay on NCI-H226, in the assay with NCI-H460, in the assay with RPMI-8226, in the assay with SF-268 and in the assay on SF-539 was > 100 µM (inactive) throughout. In addition, the GI50 in the assay with SK-MEL-5, with SNB-19, in the assay with SR, in the assay on SW-620 and with TK-10 was > 100 µM (inactive) each time.

For `O=C(C(=O)c1cc2ccccc2[nH]1)c1cc2ccccc2[nH]1`, the GI50 in the assay with 786-0 is > 284 µM (inactive); in the assay with A549, > 347 µM (inactive); with CAKI-1, 234 µM (inactive); in the assay on CCRF-CEM, > 247 µM (inactive); in the assay with HL-60 it was 195 µM (inactive); in the assay with IGROV-1, > 347 µM (inactive). The GI50 in the assay with KM12 was > 347 µM (inactive); with NCI-H226, > 347 µM (inactive); in the assay on NCI-H460, > 321 µM (inactive); in the assay with RPMI-8226, 22 µM (inactive); in the assay on SF-268, > 347 µM (inactive); in the assay on SF-539, > 347 µM (inactive). In addition, the GI50 in the assay on SK-MEL-5 was > 301 µM (inactive); in the assay with SNB-19, > 347 µM (inactive); in the assay with SR, 12.3 µM (inactive); with SW-620, 153 µM (inactive); in the assay on TK-10, > 347 µM (inactive).

As for `CC(=O)Nc1ccc(S(=O)(=O)N/N=C/CN2C(=O)c3ccccc3C2=O)cc1`, the GI50 in the assay on 786-0, in the assay with A549, in the assay on CAKI-1, in the assay with CCRF-CEM, in the assay on HL-60 and with IGROV-1 was > 100 µM (inactive) each time. In addition, the GI50 with KM12, in the assay on NCI-H226, with NCI-H460, in the assay with RPMI-8226, with SF-268 and in the assay on SF-539 was > 100 µM (inactive) in each case. Also, the GI50 in the assay with SK-MEL-5, with SNB-19, with SR, with SW-620 and in the assay with TK-10 was > 100 µM (inactive) each time.

As for `Cc1c(Cl)cccc1NC(=O)C(=O)C1C(=O)CC(C)(C)CC1=O`, the GI50 in the assay with 786-0, in the assay with A549, with CAKI-1, in the assay with CCRF-CEM, in the assay with HL-60 and in the assay with IGROV-1 was > 100 µM (inactive) each time. The GI50 in the assay with KM12, in the assay with NCI-H226, with NCI-H460, with RPMI-8226, with SF-268 and in the assay on SF-539 was > 100 µM (inactive) throughout. Besides, the GI50 with SK-MEL-5, in the assay with SNB-19, in the assay on SR, with SW-620 and in the assay with TK-10 was > 100 µM (inactive) in each case.
